Where a SMILES comes first, the peptide text is derived from it.
Biological target: T1, EB1_191–260 (EB1c) (Homo sapiens, UniProt Q15691)
T1 construct: Human EB1 (Uniprot code Q15691), residues 191–260, was cloned into pOPINS vector; SUMO fusion protein (cleaved yes); 6xHis (cleaved yes); made in house; host or cells: E. coli BL21 Star (DE3)
T1 sequence (Q15691 191-260): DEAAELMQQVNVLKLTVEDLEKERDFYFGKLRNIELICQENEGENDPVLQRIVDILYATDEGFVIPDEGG
Assay: 1H-15N HSQC NMR ligand screening / titration (chemical shift perturbations, KD by curve fitting)
Type: binding
Conditions: NMR titration curves (Tyr247) fitted to two-state exchange model; 50 μM protein; read-out: estimated KD
Description: The ^1H and ^15N resonances were fully assigned using complementary pairs of triple resonance NMR spectra - CBCA(CO)NH/HNCACB for Cα and Cβ and HNCO/HN(CA)CO for CO connectivities.
Ligand-induced chemical shift perturbations (CSPs) in NH resonances on addition of the ligand were used as an indication of ligand binding and location of the binding site.
NMR spectra were collected on Bruker Avance III 600 and 800 MHz spectrometers equipped with CryoProbes. Spectra were processed with TopSpin (Bruker) and analysed using CCPNmr Analysis[35]. ^1H-^15N HSQC ligand screening ^1H-^15N- Heteronuclear Single Quantum Coherence (HSQC) experiments for ligand binding screening were performed using 0.05 mM ^15N-labelled EB1 in 20 mM phosphate pH 6.5, 50 mM NaCl, 0.5 mM TCEP, 0.02% (w/v) NaN3 in the absence or presence of ligands. To eliminate any small shifts induced by the small amounts of DMSO used to dissolve the compounds, DMSO concentration was kept constant in all experiments.
The dotted lines connect the values calculated for the best-fit curves at the titration points. Ligand concentration corresponds to the excess of ligand (e.g. 10-fold excess, 20-fold excess) to the protein concentration (50 μM). Binding constants were evaluated by fitting the experimental data to the […]
∆δ = ∆δ {([P] + [L] + K ) − [([P] + [L] + K )2 − 4[P] [L] ]1⁄2}⁄2[P] […]

Kd	SMILES
10 ± 3 mM	C[C@@H](Sc1nnnn1C1CCCC1)C(=O)NCc1ccco1 [1a]
6 ± 1 mM	Cc1c(NC(=O)[C@@H](C)Sc2nnnn2C2CCCC2)c(=O)n(-c2ccccc2)n1C [1d]
14 ± 1.9 mM	CC[C@H](C)[C@H](NC(=O)[C@H](CCCCN)NC(=O)[C@@H](N)CO)C(=O)N1CCC[C@H]1C(=O)O [SKIP, reference compound] (H-SKIP-OH)

From article PMC5686072, “Targeting SxIP-EB1 interaction: An integrated approach to the discovery of small molecule modulators of dynamic binding sites” (Scientific Reports, 2017)
